Measured values published in ChEMBL document CHEMBL1143799, “Synthesis and primary cytotoxicity evaluation of new imidazo[2,1-b]thiazole derivatives” (2007).

Experiments:
Assay type in all cases: functional
TK-10 = assay: Growth inhibition of human TK10 cells after 48 hrs by SRB protein assay; conditions: TK-10, 48 h; for TGI: read-out: Log TGI (converted)
PC-3 = assay: Growth inhibition of human PC3 cells after 48 hrs by SRB protein assay; conditions: PC-3, 48 h; for TGI: read-out: Log TGI (converted)
SF-268 = assay: Cytotoxicity against human SF268 cells assessed as growth at 100 uM after 48 hrs by SRB protein assay relative to control; conditions: SF-268, 48 h, read-out: Activity
MCF7 = assay: Cytotoxicity against human MCF7 cells assessed as growth at 100 uM after 48 hrs by SRB protein assay relative to control; conditions: MCF7, 48 h, read-out: Activity
DU-145 = assay: Growth inhibition of human DU145 cells after 48 hrs by SRB protein assay; conditions: DU-145, 48 h; for TGI: read-out: Log TGI (converted)
CAKI-1 = assay: Growth inhibition of human CAKI1 cells after 48 hrs by SRB protein assay; conditions: CAKI-1, 48 h; for TGI: read-out: Log TGI (converted)
NCI-H460 = assay: Cytotoxicity against human […] cells assessed as growth at 100 uM after 48 hrs by SRB protein assay relative to control; conditions: NCI-H460, 48 h, read-out: Activity
OVCAR-8 = assay: Growth inhibition of human OVCAR8 cells after 48 hrs by SRB protein assay; conditions: OVCAR-8, 48 h; for TGI: read-out: Log TGI (converted)
A549 = assay: Growth inhibition of human A549 cells after 48 hrs by SRB protein assay; conditions: A549, 48 h; for TGI: read-out: Log TGI (converted)
CCRF-CEM = assay: Growth inhibition of human CCRF-CEM cells after 48 hrs by SRB protein assay; conditions: for TGI: read-out: Log TGI (converted)
K562 = assay: Growth inhibition of human K562 cells after 48 hrs by SRB protein assay; conditions: K562, 48 h; for TGI: read-out: Log TGI (converted)
SK-MEL-5 = assay: Growth inhibition of human SK-MEL-5 cells after 48 hrs by SRB protein assay; conditions: SK-MEL-5, 48 h; for TGI: read-out: Log TGI (converted)
HCC 2998 = assay: Growth inhibition of human HCC2998 cells after 48 hrs by SRB protein assay; conditions: HCC 2998, 48 h; for TGI: read-out: Log TGI (converted)
OVCAR-5 = assay: Growth inhibition of human OVCAR5 cells after 48 hrs by SRB protein assay; conditions: OVCAR-5, 48 h; for TGI: read-out: Log TGI (converted)
HT-29 = assay: Growth inhibition of human HT29 cells after 48 hrs by SRB protein assay; conditions: HT-29, 48 h; for TGI: read-out: Log TGI (converted)
NCI-H226 = assay: Growth inhibition of human NCI-H226 cells after 48 hrs by SRB protein assay; conditions: NCI-H226, 48 h; for TGI: read-out: Log TGI (converted)
T47D = assay: Growth inhibition of human T47D cells after 48 hrs by SRB protein assay; conditions: for TGI: read-out: Log TGI (converted)
NCI/ADR-RES = assay: Growth inhibition of human NCI/ADR-RES cells after 48 hrs by SRB protein assay; conditions: for TGI: read-out: Log TGI (converted)
OVCAR-4 = assay: Growth inhibition of human OVCAR4 cells after 48 hrs by SRB protein assay; conditions: OVCAR-4, 48 h; for TGI: read-out: Log TGI (converted)
A498 = assay: Growth inhibition of human A498 cells after 48 hrs by SRB protein assay; conditions: A498, 48 h; for TGI: read-out: Log TGI (converted)

Compound | GI50 (PC-3) [µM] | TGI (PC-3) [µM] | GI50 (DU-145) [µM] | TGI (DU-145) [µM] | GI50 (CAKI-1) [µM] | TGI (CAKI-1) [µM] | GI50 (OVCAR-8) [µM] | TGI (OVCAR-8) [µM] | GI50 (A549) [µM] | TGI (A549) [µM] | GI50 (CCRF-CEM) [µM] | TGI (CCRF-CEM) [µM] | GI50 (SK-MEL-5) [µM] | TGI (SK-MEL-5) [µM] | GI50 (HCC 2998) [µM] | TGI (HCC 2998) [µM] | GI50 (OVCAR-5) [µM] | TGI (OVCAR-5) [µM] | GI50 (HT-29) [µM] | TGI (HT-29) [µM] | other results
O=C(Cc1csc2nc(-c3ccc(Br)cc3)cn12)N/N=C/c1ccccc1O | 4.27 | 16.6 | 2.88 | 13.8 | 0.398 | 2.4 | 2.29 | 12.3 | 6.17 | 24 | 1.82 | 8.32 | 2.95 | 10.7 | 3.47 | 12.6 | 5.5 | 31.6 | 6.03 | 19.1 | GI50 (TK-10): 2.04 µM; TGI (TK-10): 8.71 µM; growth at 100 µM (SF-268): 50%; growth at 100 µM (MCF7): 7%; growth at 100 µM (NCI-H460): 0%; GI50 (K562): 0.0372 µM; TGI (K562): 2.95 µM; GI50 (NCI-H226): 1.95 µM; TGI (NCI-H226): 7.76 µM; GI50 (T47D): 5.25 µM; TGI (T47D): 23.4 µM; GI50 (NCI/ADR-RES): 2.51 µM; TGI (NCI/ADR-RES): 6.76 µM
COc1cccc(OC)c1/C=N/NC(=O)Cc1csc2nc(-c3ccc(Br)cc3)cn12 | 13.5 | 93.3 | 17.8 | 47.9 | 12.6 | 33.9 | 11.5 | 38 | 11.5 | 38.9 | 9.55 | > 100 | 8.91 | 42.7 | 10 | 34.7 | 50.1 | > 100 | 16.2 | > 100 | GI50 (TK-10): 16.2 µM; TGI (TK-10): 51.3 µM; growth at 100 µM (SF-268): 82%; GI50 (OVCAR-4): 28.2 µM; TGI (OVCAR-4): > 100 µM; growth at 100 µM (MCF7): 27%; growth at 100 µM (NCI-H460): 15%; GI50 (K562): 2.95 µM; TGI (K562): 6.92 µM; GI50 (T47D): 40.7 µM; TGI (T47D): > 100 µM; GI50 (NCI/ADR-RES): 12.9 µM; TGI (NCI/ADR-RES): 35.5 µM
O=C(Cc1csc2nc(-c3ccc(Br)cc3)cn12)N/N=C/c1ccc(Cl)cc1Cl | 30.2 | > 100 | 26.3 | > 100 | 36.3 | > 100 | 18.6 | 50.1 | 17 | 37.2 | 39.8 | > 100 | 44.7 | > 100 | 20 | 44.7 | 28.8 | 67.6 | 40.7 | > 100 | GI50 (A498): 29.5 µM; TGI (A498): 63.1 µM; growth at 100 µM (SF-268): 94%; GI50 (OVCAR-4): 37.2 µM; TGI (OVCAR-4): > 100 µM; growth at 100 µM (MCF7): 46%; growth at 100 µM (NCI-H460): 24%; GI50 (NCI-H226): 31.6 µM; TGI (NCI-H226): 91.2 µM; GI50 (T47D): > 100 µM; TGI (T47D): > 100 µM; GI50 (NCI/ADR-RES): 17.4 µM; TGI (NCI/ADR-RES): 52.5 µM
O=C(Cc1csc2nc(-c3ccc(Br)cc3)cn12)N/N=C/c1ccccc1 | 20.4 | > 100 | 14.5 | 44.7 | 30.2 | 81.3 | 2.34 | 20.4 | 13.5 | 40.7 | 17.4 | > 100 | 5.62 | 26.9 | 13.2 | 49 | 30.9 | > 100 | 43.7 | > 100 | GI50 (TK-10): 14.1 µM; TGI (TK-10): 41.7 µM; growth at 100 µM (SF-268): 65%; GI50 (OVCAR-4): 46.8 µM; TGI (OVCAR-4): > 100 µM; growth at 100 µM (MCF7): 57%; growth at 100 µM (NCI-H460): 12%; TGI (K562): 7.94 µM; GI50 (T47D): 37.2 µM; TGI (T47D): > 100 µM; GI50 (NCI/ADR-RES): 13.5 µM; TGI (NCI/ADR-RES): 67.6 µM
O=C(Cc1csc2nc(-c3ccc(Br)cc3)cn12)N/N=C/c1ccc(O)cc1 | < 0.01 | 23.4 | 22.4 | 87.1 | 14.8 | 49 | 7.08 | 25.7 | 10.7 | 33.9 | 12.3 | 79.4 | 7.08 | 22.4 | 14.5 | 29.5 | 27.5 | > 100 | 50.1 | > 100 | GI50 (TK-10): 9.77 µM; TGI (TK-10): 33.1 µM; growth at 100 µM (SF-268): 42%; GI50 (OVCAR-4): > 100 µM; TGI (OVCAR-4): > 100 µM; growth at 100 µM (MCF7): 22%; growth at 100 µM (NCI-H460): 11%; GI50 (K562): 1.82 µM; TGI (K562): 7.08 µM; GI50 (T47D): 31.6 µM; TGI (T47D): > 100 µM; GI50 (NCI/ADR-RES): 21.4 µM; TGI (NCI/ADR-RES): 61.7 µM
Nc1nc2[nH]cnc2c(=S)[nH]1 [THIOGUANINE] | 1.78 | 174 | 0.794 | 135 | 0.537 | 15.8 | 0.692 | 60.3 | 3.55 | 105 | 0.155 | 25.7 | 3.55 | 16.6 | 1 | 18.2 | 0.661 | 47.9 | 1.15 | 105 | GI50 (TK-10): 1.05 µM; TGI (TK-10): 79.4 µM; GI50 (A498): 6.76 µM; TGI (A498): 95.5 µM; GI50 (OVCAR-4): 1.51 µM; TGI (OVCAR-4): 100 µM; GI50 (K562): 0.407 µM; TGI (K562): 70.8 µM; GI50 (NCI-H226): 4.07 µM; TGI (NCI-H226): 97.7 µM; GI50 (T47D): 2.04 µM; TGI (T47D): 107 µM
